Assay [1] concerns 5-lipoxygenase pathway of human neutrophils (PMN). Kind of assay: Lipoxygenase pathways (leukotrienes and HETE) HPLC assay in isolated PMN. As to conditions: for 5-HETE synthesis / Isomer 1 (all trans isomer of LTB4) synthesis / Isomer 2 (all trans isomer of LTB4) synthesis / LTB4 synthesis: human PMN, arachidonic acid + A23187. The class given is cell-based. The source says: The HPLC assay readily quantifies 5-HETE, 12-HETE, LTB4, and the two all trans-isomers of LTB-4, and thus gives quantitative data on the relative activities of the enzymes in the 5-lipoxygenase of neutrophils, as well as data on the 12-lipoxygenase pathway of platelets. Thus it is an ideal system to test potential inhibitors of these pathways.
The effects of inhibitory compounds may be tested on isolated human PMN and platelets, in which the pathways are activated by treating the PMN or platelets with arachidonic acid and the calcium ionophore A23187. The addition of arachidonic acid eliminates the PLA-2 step, and provides high levels of substrate for the pathway. Furthermore, such activation is known to maximally drive the pathway to produce the greatest synthesis of all the metabolites, and thus is also the least sensitive to inhibition.
All samples were dissolved in ethanol to give stock solutions of 10 mg/mL. Two further dilutions of each stock solution were made in ethanol at 5 and 1 mg/mL, making 10 test samples in all. […]
1. Up to 100 mL of blood was taken from a normal volunteer and anticoagulated with EDTA. Two mL of 4.5% EDTA in water was mixed with each 10 mL of blood.
2. A further 2 mL of 6.0% Dextran T500 was added to each of the 12 mL mixtures in 1, and placed in a water bath at 37° C., to sediment the red blood cells.
3. Following sedimentation in 2, the supernatant was carefully laid over 5 mL of Percoll, density 1.070. This was then spun at 500 g for 35 mins.
4. All the cells (PMN and remaining RBC) below the Percoll interface were removed with a plastic pipette and diluted at least 3-fold with Ca^2+/Mg^2+-free Dulbecco's phosphate buffer, and centrifuged at 600 g for 10 mins.
5. Following 4, the supernatant was carefully aspirated, and the pellet gently mixed with 1 mL of Ca^2+/Mg^2+-free Dulbecco's phosphate buffer by aspiration/deaspiration into a 1 ml plastic disposable pipette. A further 40 mL of Ca^2+/Mg^2+-free Dulbecco's phosphate buffer was then added and mixed by inversion. The cell suspension was then centrifuged at 600 g for 10 mins. 6. Following centrifugation, the supernatant was removed and the PMN pellet lysed with 10 mL of a 0.2% cold sodium chloride solution for 20 secs, followed by the addition of 10 mL of a 1.6% cold sodium chloride solution, and centrifuged at 600 g for 10 mins. 7. Following 6, the PMN pellet was vigorously mixed with 1 mL of Hank's buffer by rapid aspiration/deaspiration into a 1 mL plastic disposable pipette, and then finally suspended in Hank's buffer at 2.4×10^6 PMN/ml (as measured using a Coulter counter), in preparation for the leukotriene assay. Activation of Leukotriene Pathway 1. 1 mL of PMN suspension (2.4×10^6 PMN/ml) was transferred to a 13 mL glass tube (chromic acid washed) and placed in a water bath at 37° C. for 5 min prewarming. 2. Following prewarming, at time zero, 10 μL of each test compound in methanol (or equivalent volumes of methanol as control) was added to quadruplicate tubes over a 20 sec period. 3. At 5 min, 5 µL of 2 mM arachidonic acid (10 μM final) was added (4 tubes/20 secs). 4. At 10 min, 5 µL of 1 mM calcium ionophore (A23187) (5 μM final) was added (4 tubes/20 secs). 5. At 15 min the reaction was terminated by the addition of 100 μL 100 mM citric acid. This lowers the pH of the aqueous phase to less than 3, which is necessary for the extraction of the leukotrienes into the organic phase. 6. The pH of several samples was checked to ensure pH<3.0. (This is important). 7. 40 ng Prostaglandin B2 and 166 ng 15-HETE were added to each tube as the internal standard for LTB4 and 5-HETE respectively, and samples were mixed. 8. For Standard Curves LTB4 [1 ng/μl] (for a standard curve in the range 0-50 ng) and 5-HETE [5 ng/μL] (standard curve range 0-250 ng) were added to tubes containing 1 mL PMN, 100 μL of 100 mM citric acid and 40 ng PGB2 and 166 ng 15-HETE. 9. All tubes were vortexed. 10. […]

Assay [2] deals with Secreted PGE2 from 3T3 cells. Put plainly: In-vitro prostaglandin PGE2 (COX pathways) EIA assay. The class given is cell-based, mouse. As to conditions: 50 µM. The protocol:
This assay was performed using Cayman chemicals Prostaglandin E2 EIA Kit-Monoclonal, according to kit protocol. Each sample was assayed at three dilutions in duplicate. […] In particular the two samples produced dose dependent inhibition of secreted PGE2 from the mouse fibroblast cell line equivalent to or better than aspirin under the test conditions.

We go through two molecules from patent US8039512B2, “Biologically active oils” (priority 2003, dated 2011).

For the molecule `CCC(C)CCCCCCCCCCC(=O)O` (centres unmarked) [Sample 12-MTA, 12-methyl tetradecanoic acid], the 5-HETE synthesis in assay [1] (2 μg/mL) is 55 ± 9 percentage of the methanol control; in assay [1] (5 μg/mL) it was 65 ± 3 percentage of the methanol control; in assay [1] (10 μg/mL), 46 ± 11 percentage of the methanol control; in assay [1] (20 μg/mL), 2 ± 4 percentage of the methanol control; in assay [1] (50 μg/mL), 0 percentage of the methanol control. The “Isomer 1 (all trans isomer of LTB4) synthesis” value in assay [1] (2 μg/mL) is 73 ± 13 percentage of the methanol control; in assay [1] (5 μg/mL) it was 101 ± 12 percentage of the methanol control; in assay [1] (10 μg/mL), 59 ± 14 percentage of the methanol control; in assay [1] (20 μg/mL), 0 percentage of the methanol control; in assay [1] (50 μg/mL), 0 percentage of the methanol control. Also, the “Isomer 2 (all trans isomer of LTB4) synthesis” value in assay [1] (2 μg/mL) is listed as 60 ± 17 percentage of the methanol control; in assay [1] (5 μg/mL), 97 ± 9 percentage of the methanol control; in assay [1] (10 μg/mL) it was 68 ± 14 percentage of the methanol control; in assay [1] (20 μg/mL) it was 0 percentage of the methanol control; in assay [1] (50 μg/mL), 0 percentage of the methanol control. Further, the LTB4 synthesis in assay [1] (2 μg/mL) was 84 ± 5 percentage of the methanol control; in assay [1] (5 μg/mL), 101 ± 12 percentage of the methanol control; in assay [1] (10 μg/mL), 70 ± 17 percentage of the methanol control; in assay [1] (20 μg/mL), 0 percentage of the methanol control; in assay [1] (50 μg/mL), 0 percentage of the methanol control. The “Inhibition of the 5-LOX pathway” value in assay [1] (as low as 20 μg/mL) is 100%.
Consider `CC(=O)Oc1ccccc1C(=O)O` [Aspirin], for which the “% Control (secreted PGE2)” value in assay [2] (A23187) is reported as 72.6 % Control; in assay [2] (A23187, listed as aspirin) it was “around 72.6 % Control”.
